Source: the supplement of paper PMC6965134
± gives the standard deviation of the averaged measurements. Values belong to the compound of their own block, whether it stands above or below them.

Experiment: TIMS collisional cross section (CCS, N2) of the lipid ion; higher = larger ion cross section
Conditions: ionization mode: negative, one isomer drawn
Method: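 Lipid extracts of human plasma (NIST SRM 1950), mouse liver or HeLa cells were separated by nanoflow C18 LC (30 min gradient) and analysed by TIMS-PASEF on a timsTOF Pro. Ion mobility was calibrated with the Agilent tuning mix (negative mode ions) and converted to collisional cross sections (Mason–Schamp, N2).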
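Further: lipids from MTBE extraction, five replicate injections per sample, 100 ms TIMS ramp spanning 0.6–1.95 Vs/cm², lipid identity assigned from PASEF MS/MS spectra.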

SMILES: CCCCC/C=C\C/C=C\C/C=C\C/C=C\CCCC(=O)O[C@H](COC(=O)CCCCCCCCCCCCCCCCC)COP(=O)([O-])OCC[N+](C)(C)C [PC 18:0@_20:4]
TIMS collisional cross section (sample type: Human plasma, ion (formula + adduct): [C46H84NO8P+HCOO] 1-): 297.2 Å²

SMILES: CCCCCC/C=C\CCCCCCCC(=O)OC[C@@H](O)COP(=O)(O)OCCN [LPE 16:1_0:0]
TIMS collisional cross section (sample type: Human plasma, ion (formula + adduct): [C21H42NO7P-H] 1-): 208.4 Å² | TIMS collisional cross section (sample type: Mouse Liver, ion (formula + adduct): [C21H42NO7P-H] 1-): 208.4 Å²

SMILES: CC/C=C\C/C=C\C/C=C\C/C=C\C/C=C\C/C=C\CCC(=O)OC[C@H](COP(=O)(O)OC[C@H](N)C(=O)O)OC(=O)CCCCCCCCCCCCCCCCC [PS 22:6_18:0]
TIMS collisional cross section (sample type: Mouse Liver, ion (formula + adduct): [C46H78NO10P-H] 1-): 289.7 Å²

SMILES: CC/C=C\C/C=C\C/C=C\C/C=C\C/C=C\CCCC(=O)O[C@H](COC(=O)CCCCCCC/C=C\C/C=C\CCCCC)COP(=O)([O-])OCC[N+](C)(C)C [PC 18:2_20:5@]
TIMS collisional cross section (sample type: Mouse Liver, ion (formula + adduct): [C46H78NO8P-CH3] 1-): 276.6 Å²

SMILES: CC/C=C\C/C=C\C/C=C\C/C=C\C/C=C\C/C=C\CCC(=O)O[C@H](COCCCCCCCCCCCCCCCC)COP(=O)([O-])OCC[N+](C)(C)C [PC O- 16:0@_22:6]
TIMS collisional cross section (sample type: Human plasma, ion (formula + adduct): [C46H82NO7P+HCOO] 1-): 298.4 Å² | TIMS collisional cross section (sample type: Mouse Liver, ion (formula + adduct): [C46H82NO7P+HCOO] 1-): 296.7 Å²

SMILES: CC/C=C\C/C=C\C/C=C\C/C=C\C/C=C\C/C=C\CCC(=O)OC[C@H](COP(=O)(O)OCCN)OC(=O)CC/C=C\C/C=C\C/C=C\C/C=C\C/C=C\C/C=C\CC [PE 22:6_22:6]
TIMS collisional cross section (sample type: Mouse Liver, ion (formula + adduct): [C49H74NO8P-H] 1-): 283.9 Å²

SMILES: CCCCC/C=C\C/C=C\C/C=C\CCCCCCC(=O)OC[C@@H](O)COP(=O)(O)OCCN [LPE 20:3_0:0]
TIMS collisional cross section (sample type: Mouse Liver, ion (formula + adduct): [C25H46NO7P-H] 1-): 217.6 ± 0.42 Å²

SMILES: CC/C=C\C/C=C\C/C=C\C/C=C\C/C=C\C/C=C\CCC(=O)OC[C@H](COP(=O)(O)OCCN)OC(=O)CCCCCCC/C=C\C/C=C\CCCCC [PE 22:6_18:2]
TIMS collisional cross section (sample type: Mouse Liver, ion (formula + adduct): [C45H74NO8P-H] 1-): 276.6 Å²

SMILES: CCCCCCCCCCCCCCCCCC(=O)OC[C@@H](O)COP(=O)(O)OC1C(O)C(O)C(O)[C@@H](O)C1O (stereo not given in full) [LPI 18:0_0:0]
TIMS collisional cross section (sample type: Human plasma, ion (formula + adduct): [C27H53O12P-H] 1-): 239.4 Å²

Results, then the compound that gave them:

TIMS collisional cross section (sample type: Mouse Liver, ion (formula + adduct): [C41H80NO7P-H] 1-): 273.5 Å²
SMILES: CCCCCCCC/C=C\CCCCCCCCCC(=O)O[C@H](CO/C=C\CCCCCCCCCCCCCC)COP(=O)(O)OCCN [PE P- 16:0@_20:1]

TIMS collisional cross section (sample type: Mouse Liver, ion (formula + adduct): [C44H80NO9P-CH3] 1-): 281.3 Å²
SMILES: CCCCC/C=C\C[C@H](O)/C=C/C=C\C/C=C\CCCC(=O)O[C@H](COC(=O)CCCCCCCCCCCCCCC)COP(=O)([O-])OCC[N+](C)(C)C [Oxidized PC 16:0@_20:4]

TIMS collisional cross section (sample type: Human plasma, ion (formula + adduct): [C46H82NO8P+HCOO] 1-): 301.2 Å²
SMILES: CC/C=C\C/C=C\C/C=C\C/C=C\C/C=C\CCCC(=O)O[C@H](COC(=O)CCCCCCCCCCCCCCCCC)COP(=O)([O-])OCC[N+](C)(C)C [PC 18:0@_20:5]

TIMS collisional cross section (sample type: Mouse Liver, ion (formula + adduct): [C45H76NO7P-H] 1-): 278.5 Å²
SMILES: CC/C=C\C/C=C\C/C=C\C/C=C\C/C=C\C/C=C\CCC(=O)O[C@H](CO/C=C\CCCCCC/C=C\CCCCCCCC)COP(=O)(O)OCCN [PE P- 18:1@_22:6]

TIMS collisional cross section (sample type: Mouse Liver, ion (formula + adduct): [C43H74NO9P-H] 1-): 290.6 Å²
SMILES: CC/C=C\C/C=C\CC(O)/C=C/C=C\C/C=C\C/C=C\CCC(=O)O[C@H](COC(=O)CCCCCCCCCCCCCCC)COP(=O)(O)OCCN (stereo not given in full) [Oxidized PE 16:0_22:6@]

TIMS collisional cross section (sample type: Human plasma, ion (formula + adduct): [C45H78NO9P-H] 1-): 285.8 Å²
SMILES: CC/C=C\C/C=C\CC(O)/C=C/C=C\C/C=C\C/C=C\CCC(=O)O[C@H](COC(=O)CCCCCCCCCCCCCCCCC)COP(=O)(O)OCCN (stereo not given in full) [Oxidized PE 18:0@_22:6]

TIMS collisional cross section (sample type: Human plasma, ion (formula + adduct): [C42H86NO7P+HCOO] 1-): 293.5 Å²
SMILES: CCCCCCCCCCCCCCCCCCOC[C@H](COP(=O)([O-])OCC[N+](C)(C)C)OC(=O)CCCCCCCCCCCCCCC [PC O- 18:0@_16:0]

TIMS collisional cross section (sample type: Human plasma, ion (formula + adduct): [C21H44NO7P-CH3] 1-): 207.4 Å² | TIMS collisional cross section (sample type: Human plasma, ion (formula + adduct): [C21H44NO7P-H] 1-): 214 ± 5.5 Å² | TIMS collisional cross section (sample type: Mouse Liver, ion (formula + adduct): [C21H44NO7P-H] 1-): 219.47 ± 10 Å²
SMILES: CCCCCCCCCCCCCCCC(=O)OC[C@@H](O)COP(=O)(O)OCCN [LPE 16:0_0:0]

TIMS collisional cross section (sample type: Mouse Liver, ion (formula + adduct): [C37H73O8P+Cl] 1-): 267.2 Å²
SMILES: CCCCCCCCCCCCCCCCCC(=O)OC[C@H](COP(=O)(O)O)OC(=O)CCCCCCCCCCCCCCC [PA 18:0@_16:0]

TIMS collisional cross section (sample type: Human plasma, ion (formula + adduct): [C33H66NO8P-H] 1-): 260.3 Å²
SMILES: CCCCCCCCCCCCCCCC(=O)OC[C@H](COP(=O)([O-])OCC[N+](C)(C)C)OC(=O)CCCCCCCC [PC 16:0_9:0@]

TIMS collisional cross section (sample type: Human plasma, ion (formula + adduct): [C38H78NO7P+HCOO] 1-): 282.2 Å²
SMILES: CCCCCCCCCCCCCCCCOC[C@H](COP(=O)([O-])OCC[N+](C)(C)C)OC(=O)CCCCCCCCCCCCC [PC O- 16:0@_14:0]

TIMS collisional cross section (sample type: Human plasma, ion (formula + adduct): [C46H84NO7P-CH3] 1-): 282.5 Å²
SMILES: CCCCC/C=C\C/C=C\C/C=C\C/C=C\CCCCCC(=O)O[C@H](CO/C=C\CCCCCCCCCCCCCC)COP(=O)([O-])OCC[N+](C)(C)C [PC P- 16:0@_22:4]
